In US20060100140A1, “Combination of a) n-{5-[4-(4-methyl-piperazino-methyl)-benzoylamido]2-methylphenyl}-4- (3-pyridyl)-2-pyrimidine-amine and b) a histone deacetylase inhibitor for the treatment of leukemia” (priority 2002, published 2006):

Tests used:
Format in all cases: cell-based, human
K562 cells [1] = assay: Loss of mitochondrial membrane potential (DiOC6 flow cytometry); conditions: 2.0 μM SAHA ± 250 nM Compound I
Description: Determination of MMP(ΔΨm): MMP is monitored using DiOC6 [36]. For each condition, 4×10^5 cells are incubated for 15 min at 37° C. in 1 ml of 40 nM DiOC6 (Calbiochem) and subsequently analyzed using a Becton Dickinson FACScan cytofluorometer with excitation and emission settings of 488 and 525 nm, respectively. Control experiments documenting the loss of ΔΨm are performed by exposing cells to 5 μM of […] cyanide m-chlorophenylhydrazone (Sigma Chemical Co.; 15 min, 37° C.), an uncoupling agent that abolishes the MMP.

[2] = system: K562 cells transfected with GFP/constitutively active MEK1/2 fusion cDNA; assay: Apoptosis in sorted transiently transfected cells; conditions: Table 8; GFP/MEK; 2.0 μM SAHA ± 250 nM Compound I for 24 hr
Description: (§1) Assessment of Apoptosis: After drug exposures, cytocentrifuge preparations are stained with Wright-Giemsa and viewed by light microscopy to evaluate the extent of apoptosis (i.e., cell shrinkage, nuclear condensation, formation of apoptotic bodies, etc.) as described previously (Yu et al., Nat. Rev. Cancer 1:294-202). For these studies, the percentage of apoptotic cells is determined by evaluating ≧500 cells/condition in triplicate. To confirm the results of morphological analysis, Annexin V/PI staining is used. Annexin V/PI (BD PharMingen, San Diego, Calif.) analysis of cell death is carried out as per the manufacturer's instructions. […] The slides are treated with acetic acid/ethanol (1:2), stained with terminal transferase reaction mixture containing 1× terminal transferase reaction buffer (0.25 units/μl terminal transferase, 2.5 mM CoCl2, and 2 pmol fluorescein-12-dUTM; Boehringer Mannheim, Indianapolis, Ind.), and visualized using fluorescence microscopy.
(§2) Transient transfections: Plasmids encoding enhanced green fluorescence protein under the transciptional control of the human cytomegalovirus (CMV) immediate-early promoter (pEGFP-C2), and HA-tagged activated MEK1 (S218D/S222D in pUSEEamp) are obtained from Clontech Laboratories (Palo Alto, Calif.) and Upstate Biotechnology (Lake Placid, N.Y.), respectively.

[3] = system: K562 cells transfected with GFP alone; assay: Apoptosis in sorted transiently transfected cells; conditions: Table 8, 2.0 μM SAHA ± 250 nM Compound I for 24 hr
Description: as §1, §2

K562 cells [4] = assay: Clonogenic survival in soft agar; conditions: 2.0 μM SAHA ± 250 nM Compound I for 24 hr, washed, 12-day incubation
Description: Analysis of erythroid maturation of K562 cells is performed by monitoring the production of hemoglobin as previously described (Yang et al., J. Biol. Chem. 2001, 276:25742-52). Clonogenic Survival: Effects of drug treatment on the clonogenic survival of leukemia cells is determined using a previously described clonogenic assay (Yu et al., Mol. Pharmacol. 2001, 60: 143-54).

K562 cells [5] = assay: Erythroid differentiation by hemoglobin (Hgb) production; conditions: 2.0 μM SAHA ± 250 nM Compound I
Source text: In each case, values represent the means±S.D. for three separate experiments.

p21^CIP1 = assay: Western analysis of p21CIP1 in K562 cells; conditions: 2.0 μM SAHA ± 250 nM Compound I
Description: Immunoblot Analysis: Immunoblotting is performed as described previously (Yu et al., Nat. Rev. Cancer 1:294-202). In brief, after drug treatment cells are pelleted by centrifugation, and lysed immediately in Laemmli buffer [1×=30 mM Tris-base (pH 6.8), 2% SDS, […] β-mercaptoethanol, and 10% glycerol], and briefly sonicated. Homogenates are quantified using Coomassie protein assay reagent (Pierce, Rockford, Ill.). Equal amounts of protein (20 μg) are boiled for 10 min, separated by SDS-PAGE (5% stacker and 10% resolving), and electroblotted to nitrocellulose membrane. After blocking in TBS-T (0.05%) and 5% milk for 1 h at 22° C., the blots are incubated in fresh blocking solution with an appropriate dilution of primary antibody for 4 h at 22° C. […]
K562 cells are treated as above, and monitored for expression of Bcl-xL, Mcl-1, and XIAP. […]

Compound | percentage of cells displaying loss of mitochondrial membrane potential (ΔΨm) (K562 cells [1]; 0 hours) [%] | percentage of cells displaying loss of mitochondrial membrane potential (ΔΨm) (K562 cells [1]; 6 hours) [%] | percentage of cells displaying loss of mitochondrial membrane potential (ΔΨm) (K562 cells [1]; 24 hours) [%] | percentage of cells displaying loss of mitochondrial membrane potential (ΔΨm) (K562 cells [1]; 48 hours) [%] | apoptosis [2] [%] | apoptosis [3] [%] | Clonogenic survival (% control) (K562 cells [4]) | increase in Hgb production (K562 cells [5]; 24-hr exposure) [%] | Hgb production (K562 cells [5]; 48 hr, data not shown) | percentage of cells displaying loss of mitochondrial membrane potential (ΔΨm) (K562 cells [1]; 12 hours) [%] | percentage of cells displaying loss of mitochondrial membrane potential (ΔΨm) (K562 cells [1]; 18 hours) [%] | induction of p21^CIP1 (p21^CIP1)
Cc1ccc(NC(=O)c2ccc(CN3CCN(C)CC3)cc2)cc1Nc1nccc(-c2cccnc2)n1 [Compound I, N-{5-[4-(4-methyl-piperazino-methyl)-benzoylamido]-2-methylphenyl}-4-(3-pyridyl)-2-pyrimidine-amine] | 5.7 ± 1.8 | 8.8 ± 1.9 | 17.8 ± 3.4 | 41.3 ± 4.3 |  |  |  |  |  |  |  | 
O=C(CCCCCCC(=O)Nc1ccccc1)NO [SAHA, suberoylanilide hydroxamic acid] | 5.4 ± 1.6 | 8.1 ± 1.9 | 16.4 ± 2.9 | 20.5 ± 2.8 | 19.8 ± 2.1 | 22.5 ± 2.6 | 21.8 ± 3.6 | ~50 | substantial increases | 10.4 ± 2.1 | 12.3 ± 2.8 | robust induction
